Test results: patent US10856562B2, “Flavor composition and edible compositions containing same” (MARS, INCORPORATED, priority 2013, dated 2020)
Square brackets hold non-standard residues; d marks the D form. Ends that are not written are not given here. pGlu = O=C1CC[C@@H](C(=O)O)N1

Tested on: panelists
Assay: Consensus attribute scores of flavor enhancers in Uncle Ben's Garden Vegetable Ready rice
Format: in vivo, human
Set-up: key to Cooked White Rice / Vegetable Oil / Vegetable Complex / Cooked Green Vegetable / Cooked Corn / Sweet (BASIC TASTES) / Salt (BASIC TASTES) / Mouthdrying (Texture) / Residual Mouthcoating (Texture) / Total Aromatics / Bitter (BASIC TASTES): 15-point scale, 0 = none, 15 = very strong
Settings: for Black Pepper / Cooked Corn / Cooked Green Vegetable / Cooked White Rice / Dehydrated onion/garlic / HVP/Brothy / Heat (Chemical Feeling Factors) / Mineral/Flint / Mouthdrying (Texture) / Residual Mouthcoating (Texture) / Salt (BASIC TASTES) / Sweet (BASIC TASTES) / Total Aromatics / Umami (Chemical Feeling Factors) / Vegetable Complex / Vegetable Oil / Bitter (BASIC TASTES) / Salt Burn (Chemical Feeling Factors): rice
Procedure: Descriptive attributes (e.g., taste, flavor and chemical feeling factors) of three use levels of pGlu-Cys (FE-35), pGlu-Cys-Gly (FE-36), pGlu-Cys-Cys (FE-37), pGlu-Cys-Val (FE-38) and pGlu-Val-Cys (UE-30) flavor composition peptides were determined. The three use levels were as follows: 1.0 ppb, 10.0 ppb and 100.0 ppb.
Data was collected for the attributes of the product in-mouth for the use levels according to the following protocol: • The samples were analyzed for flavor by six to nine members of a panel, trained and experienced in flavor evaluation using the Spectrum™ method. Samples were evaluated across multiple panel sessions. • The strength of each attribute was rated on a 15-point scale, where 0=none and 15=very strong. • This scale incorporates the ability to use tenths of a point and therefore has the potential of 150 scale differentiations. • The scale may be expanded beyond 15 points to include extreme ratings if necessary.
Preparation of Rice Samples • Each flavor enhancer was tested in Uncle Ben's Garden Vegetable Ready rice matrix at 3 different concentrations: 1 ppb, 10 ppb and 100 ppb. A total of 15 points with flavor enhancers were prepared for sensory evaluation. Additionally, 15 control samples were prepared. Each point had 2 samples (test and control) and was made from one pouch of rice. • Directions to prepare the solutions: • The 15 ready- to eat pouches were microwaved according to the procedure found on the back of the pouch: (1) squeeze pouch to separate rice, (2) tear two inches to vent, (3) heat on High for 90 seconds and (4) remove from microwave using COOL TOUCH area on untorn side. • From each pouch 124.75 g (test sample) and 99.8 g (control) were weighed out. The test sample had the flavor enhancer and/or salt. The control sample only had salt added. • The flavor enhancer and/or salt (non-iodized salt) were weighed in a soufflé cup. The weighed amount of flavor enhancer and/or salt was added to the sub-sampled rice. The rice was stirred and mixed to evenly distribute the salt added. • Some rice was placed back into the soufflé cup, sealed, and the cup was shook to get the flavor enhancer and/or salt that may have been stuck on the walls of the soufflé cup. After shaking the soufflé cup, the rice was added back to the original sub-sampled rice and stirred/mixed again. • Each sample (test and control) was microwaved for another 30 seconds (or until warm) to ensure that the salts/compounds were going completely into the solutions. • All samples (test and control) were tasted at the same temperature. • Each test sample had 0.2% NaCl added and flavor enhancers at the specified concentrations.
A summary of the concentrations of NaCl and flavor composition peptides in the rice samples is described in table 23. The first value of each cell represents a single sample amount of an ingredient in milligrams, and the second number in parenthesis is a doubling of the ingredient (in grams) for use in a doubled size sample.
The panelists evaluated each sample for the attributes described by table 25.

[pGlu]-Cys [FE-35]
Umami feeling factor in rice compared to the Control (10 & 100 ppb): higher
Salt in rice compared to the Control (100 ppb): saltier than the Control
Heat in rice, not seen in the Control (all concentrations): low level
Cooked green vegetable in rice compared to the Control (all samples (1, 10, 100 ppb)): low level of cooked green vegetable
Mouthdrying in rice, not seen in the Control (all samples (1, 10, 100 ppb)): low level
Total aromatics in rice (at 50 ppm): slightly lower
Black Pepper (1.0 ppb (5 ppm)): 1.0
Cooked Corn (1.0 ppb (5 ppm)): 0.5
Cooked Green Vegetable (1.0 ppb (5 ppm)): 0.5
Cooked White Rice (1.0 ppb (5 ppm)): 3.0
Dehydrated onion/garlic (1.0 ppb (5 ppm)): 0.8
HVP/Brothy (1.0 ppb (5 ppm)): 1.0
Heat (Chemical Feeling Factors) (1.0 ppb (5 ppm)): 0.8
Mineral/Flint (1.0 ppb (5 ppm)): 0.8
Mouthdrying (Texture) (1.0 ppb (5 ppm)): 1.5
Residual Mouthcoating (Texture) (1.0 ppb (5 ppm)): 1.0
Salt (BASIC TASTES) (1.0 ppb (5 ppm)): 13.0
Sweet (BASIC TASTES) (1.0 ppb (5 ppm)): 3.5
Total Aromatics (1.0 ppb (5 ppm)): 6.3
Umami (Chemical Feeling Factors) (1.0 ppb (5 ppm)): 1.0
Vegetable Complex (1.0 ppb (5 ppm)): 1.0
Vegetable Oil (1.0 ppb (5 ppm)): 0.5
Black Pepper (10.0 ppb (50 ppm)): 0.8
Cooked Corn (10.0 ppb (50 ppm)): 0.8
Cooked Green Vegetable (10.0 ppb (50 ppm)): 0.8
Cooked White Rice (10.0 ppb (50 ppm)): 3.0
Dehydrated onion/garlic (10.0 ppb (50 ppm)): 0.8
HVP/Brothy (10.0 ppb (50 ppm)): 1.0
Heat (Chemical Feeling Factors) (10.0 ppb (50 ppm)): 0.5
Mineral/Flint (10.0 ppb (50 ppm)): 1.3
Mouthdrying (Texture) (10.0 ppb (50 ppm)): 1.0
Residual Mouthcoating (Texture) (10.0 ppb (50 ppm)): 1.0
Salt (BASIC TASTES) (10.0 ppb (50 ppm)): 13.5
Sweet (BASIC TASTES) (10.0 ppb (50 ppm)): 3.5
Total Aromatics (10.0 ppb (50 ppm)): 6.0
Umami (Chemical Feeling Factors) (10.0 ppb (50 ppm)): 3.0
Vegetable Complex (10.0 ppb (50 ppm)): 1.3
Vegetable Oil (10.0 ppb (50 ppm)): 0.5
Black Pepper (100 ppb (50 ppm)): 1.0
Cooked Corn (100 ppb (50 ppm)): 0.8
Cooked Green Vegetable (100 ppb (50 ppm)): 0.8
Cooked White Rice (100 ppb (50 ppm)): 3.0
Dehydrated onion/garlic (100 ppb (50 ppm)): 1.0
HVP/Brothy (100 ppb (50 ppm)): 1.0
Heat (Chemical Feeling Factors) (100 ppb (50 ppm)): 0.5
Mineral/Flint (100 ppb (50 ppm)): 1.0
Mouthdrying (Texture) (100 ppb (50 ppm)): 1.0
Residual Mouthcoating (Texture) (100 ppb (50 ppm)): 1.0
Salt (BASIC TASTES) (100 ppb (50 ppm)): 15.0
Sweet (BASIC TASTES) (100 ppb (50 ppm)): 3.5
Total Aromatics (100 ppb (50 ppm)): 6.5
Umami (Chemical Feeling Factors) (100 ppb (50 ppm)): 4.0
Vegetable Complex (100 ppb (50 ppm)): 1.5
Vegetable Oil (100 ppb (50 ppm)): 0.8

[pGlu]-Cys-Cys (cysteine pairing not given here) [FE-37]
Bitter in rice (all samples (1, 10, 100 ppb)): low in bitter
Cooked green vegetable in rice compared to the Control (all samples (1, 10, 100 ppb)): low level of cooked green vegetable
Mineral/flint note in rice, not seen in the Control (all samples (1, 10, 100 ppb)): low mineral/flint note
Mouthdrying in rice, not seen in the Control (all samples (1, 10, 100 ppb)): have mouthdrying
Salt burn feeling factor in rice compared to the Control (all samples (1, 10, 100 ppb)): higher
Salt in rice compared to the Control (all samples (1, 10, 100 ppb)): saltier than the Control
Umami feeling factor in rice compared to the Control (all samples (1, 10, 100 ppb)): higher
Bitter (BASIC TASTES) (1.0 ppb (5 ppm)): 0.8
Black Pepper (1.0 ppb (5 ppm)): 1.0
Cooked Corn (1.0 ppb (5 ppm)): 0.5
Cooked Green Vegetable (1.0 ppb (5 ppm)): 0.5
Cooked White Rice (1.0 ppb (5 ppm)): 3.0
Dehydrated onion/garlic (1.0 ppb (5 ppm)): 1.3
HVP/Brothy (1.0 ppb (5 ppm)): 1.0
Mineral/Flint (1.0 ppb (5 ppm)): 0.8
Mouthdrying (Texture) (1.0 ppb (5 ppm)): 1.0
Residual Mouthcoating (Texture) (1.0 ppb (5 ppm)): 1.0
Salt (BASIC TASTES) (1.0 ppb (5 ppm)): 15.0
Salt Burn (Chemical Feeling Factors) (1.0 ppb (5 ppm)): 0.8
Sweet (BASIC TASTES) (1.0 ppb (5 ppm)): 3.0
Total Aromatics (1.0 ppb (5 ppm)): 6.0
Umami (Chemical Feeling Factors) (1.0 ppb (5 ppm)): 1.5
Vegetable Complex (1.0 ppb (5 ppm)): 1.0
Vegetable Oil (1.0 ppb (5 ppm)): 0.8
Bitter (BASIC TASTES) (10.0 ppb (50 ppm)): 1.5
Black Pepper (10.0 ppb (50 ppm)): 1.0
Cooked Corn (10.0 ppb (50 ppm)): 0.5
Cooked Green Vegetable (10.0 ppb (50 ppm)): 0.5
Cooked White Rice (10.0 ppb (50 ppm)): 3.0
Dehydrated onion/garlic (10.0 ppb (50 ppm)): 1.5
HVP/Brothy (10.0 ppb (50 ppm)): 1.5
Mineral/Flint (10.0 ppb (50 ppm)): 0.8
Mouthdrying (Texture) (10.0 ppb (50 ppm)): 1.5
Residual Mouthcoating (Texture) (10.0 ppb (50 ppm)): 1.0
Salt (BASIC TASTES) (10.0 ppb (50 ppm)): 15.5
Salt Burn (Chemical Feeling Factors) (10.0 ppb (50 ppm)): 1.3
Sweet (BASIC TASTES) (10.0 ppb (50 ppm)): 3.5
Total Aromatics (10.0 ppb (50 ppm)): 6.5
Umami (Chemical Feeling Factors) (10.0 ppb (50 ppm)): 2.5
Vegetable Complex (10.0 ppb (50 ppm)): 1.0
Vegetable Oil (10.0 ppb (50 ppm)): 0.8
Bitter (BASIC TASTES) (100 ppb (50 ppm)): 1.0
Black Pepper (100 ppb (50 ppm)): 1.0
Cooked Corn (100 ppb (50 ppm)): 0.8
Cooked Green Vegetable (100 ppb (50 ppm)): 0.8
Cooked White Rice (100 ppb (50 ppm)): 3.0
Dehydrated onion/garlic (100 ppb (50 ppm)): 1.5
HVP/Brothy (100 ppb (50 ppm)): 1.5
Mineral/Flint (100 ppb (50 ppm)): 1.0
Mouthdrying (Texture) (100 ppb (50 ppm)): 1.5
Residual Mouthcoating (Texture) (100 ppb (50 ppm)): 1.0
Salt (BASIC TASTES) (100 ppb (50 ppm)): 16.0
Salt Burn (Chemical Feeling Factors) (100 ppb (50 ppm)): 1.8
Sweet (BASIC TASTES) (100 ppb (50 ppm)): 3.5
Total Aromatics (100 ppb (50 ppm)): 6.5
Umami (Chemical Feeling Factors) (100 ppb (50 ppm)): 3.0
Vegetable Complex (100 ppb (50 ppm)): 1.5
Vegetable Oil (100 ppb (50 ppm)): 0.8

[pGlu]-Cys-Gly [FE-36]
Salt burn in rice (100 ppb): low level of salt burn
Bitter in rice (all samples (1, 10, 100 ppb)): slightly bitter
Cooked green vegetable in rice compared to the Control (all samples (1, 10, 100 ppb)): low level of cooked green vegetable
Mouthdrying in rice, not seen in the Control (all samples (1, 10, 100 ppb)): have mouthdrying
Umami feeling factor in rice compared to the Control (all samples (1, 10, 100 ppb)): higher in umami
Bitter (BASIC TASTES) (1.0 ppb (5 ppm)): 0.5
Black Pepper (1.0 ppb (5 ppm)): 1.0
Cooked Corn (1.0 ppb (5 ppm)): 1.0
Cooked Green Vegetable (1.0 ppb (5 ppm)): 0.5
Cooked White Rice (1.0 ppb (5 ppm)): 3.0
Dehydrated onion/garlic (1.0 ppb (5 ppm)): 1.0
HVP/Brothy (1.0 ppb (5 ppm)): 1.0
Mouthdrying (Texture) (1.0 ppb (5 ppm)): 1.0
Residual Mouthcoating (Texture) (1.0 ppb (5 ppm)): 1.0
Salt (BASIC TASTES) (1.0 ppb (5 ppm)): 11.5
Salt Burn (Chemical Feeling Factors) (1.0 ppb (5 ppm)): 0.0
Sweet (BASIC TASTES) (1.0 ppb (5 ppm)): 3.5
Total Aromatics (1.0 ppb (5 ppm)): 6.0
Umami (Chemical Feeling Factors) (1.0 ppb (5 ppm)): 1.5
Vegetable Complex (1.0 ppb (5 ppm)): 1.5
Vegetable Oil (1.0 ppb (5 ppm)): 0.8
Bitter (BASIC TASTES) (10.0 ppb (50 ppm)): 1.0
Black Pepper (10.0 ppb (50 ppm)): 1.0
Cooked Corn (10.0 ppb (50 ppm)): 1.0
Cooked Green Vegetable (10.0 ppb (50 ppm)): 1.0
Cooked White Rice (10.0 ppb (50 ppm)): 3.0
Dehydrated onion/garlic (10.0 ppb (50 ppm)): 1.5
HVP/Brothy (10.0 ppb (50 ppm)): 1.0
Mouthdrying (Texture) (10.0 ppb (50 ppm)): 1.5
Residual Mouthcoating (Texture) (10.0 ppb (50 ppm)): 1.0
Salt (BASIC TASTES) (10.0 ppb (50 ppm)): 13.5
Salt Burn (Chemical Feeling Factors) (10.0 ppb (50 ppm)): 0.0
Sweet (BASIC TASTES) (10.0 ppb (50 ppm)): 3.5
Total Aromatics (10.0 ppb (50 ppm)): 6.5
Umami (Chemical Feeling Factors) (10.0 ppb (50 ppm)): 3.0
Vegetable Complex (10.0 ppb (50 ppm)): 2.0
Vegetable Oil (10.0 ppb (50 ppm)): 0.8
Bitter (BASIC TASTES) (100 ppb (50 ppm)): 0.5
Black Pepper (100 ppb (50 ppm)): 0.8
Cooked Corn (100 ppb (50 ppm)): 0.8
Cooked Green Vegetable (100 ppb (50 ppm)): 0.8
Cooked White Rice (100 ppb (50 ppm)): 3.0
Dehydrated onion/garlic (100 ppb (50 ppm)): 1.3
HVP/Brothy (100 ppb (50 ppm)): 1.0
Mouthdrying (Texture) (100 ppb (50 ppm)): 2.0
Residual Mouthcoating (Texture) (100 ppb (50 ppm)): 1.0
Salt (BASIC TASTES) (100 ppb (50 ppm)): 13.5
Salt Burn (Chemical Feeling Factors) (100 ppb (50 ppm)): 1.0
Sweet (BASIC TASTES) (100 ppb (50 ppm)): 3.5
Total Aromatics (100 ppb (50 ppm)): 6.3
Umami (Chemical Feeling Factors) (100 ppb (50 ppm)): 4.0
Vegetable Complex (100 ppb (50 ppm)): 1.5
Vegetable Oil (100 ppb (50 ppm)): 0.8
